The text below walks through data of US20080300147A1, “Detection and Treatment of Fibrotic Disorders” (priority 2004, published 2008).

Assay [1] deals with leiomyoma. The following applies: GnRHa treated group compared to secretory phase tissues. From the text:
(§1) Western Blot Analysis and Immunohistochemical Localization. For immunoblotting, total protein was isolated from small portions of GnRHa-treated and untreated leiomyoma and myometrium as well as the GnRHa-treated and untreated cells as previously described (Ding, L et al. J Clin Endocrinol Metab, 2004, 89:5549-5557; Chegini, N et al. Mol Cell Endocrinol, 2003, 209:9-16). Following determination of the tissue homogenates and cell lysates protein content an equal amount of sample proteins were subjected to SDS-PAGE and transferred to polyvinyldiene difluoride (PVDF) membrane. The blots were incubated with anti-TIEG antibody, kindly provided by Dr. Thomas Spelsberg, Department of Biochemistry, Mayo Clinic, Rochester, Minn. (Johnsen, S A et al. Oncogene, 2002, 21:5783-90), TGIF, EGR3, p27, p57, Nur77 and Gas1 antibodies purchased from Santa Cruz Biochemical (Santa Cruz, Calif.), IL-11 antibodies purchased from R & D system (Minneapolis, Minn.) for 1 hr at room temperature. […]
(§2) Western Blot Analysis and Immunohistochemical Localization. […] The homogenates' protein contents were determined, and an equal amount was subjected to SDS-PAGE and transferred to polyvinyldiene difluoride membrane.

The subject of assay [2] is myometrium. The following applies: GnRHa treated group compared to secretory phase tissues.
From the text: as §1, §2

Assay [3] relates to myometrium. The assay is described as follows: Realtime PCR mRNA expression in myometrium, GnRHa therapy vs untreated. Type of assay: in vivo, human. From the text:
(§3) Tissues. Portions of leiomyoma and matched myometrium were collected from premenopausal women (N=6) who were scheduled to undergo hysterectomy for indications related to symptomatic leiomyomas. Three of the patients received GnRHa therapy for three months prior to surgery. […] To maintain a standard, all leiomyomas selected for this study were between 2 to 3 cm in diameter. […] The tissues were collected at the University of Florida affiliated Shands Hospital with prior approval obtained from the Institutional Review Board.
(§4) Quantitative RealTime PCR. Realtime PCR was utilized for verification of 10 differentially expressed and regulated genes identified in leiomyoma and myometrium as well as LSMC and MSMC from untreated and GnRHa-treated cohorts. The selection of these genes was based not only on their expression values (up or downregulation), but classification and biological functions important to leiomyoma growth and regression, regulation by ovarian steroids, GnRHa and TGF-β. They are IL-11, CITED2, Nur77, EGR3, TGIF, TIEG, p27, p57, GAS-1 and GPRK5 representing cytokines, transcription factors, cell cycle regulators and signal transduction.
(§5) Portions of leiomyoma and matched myometrium were collected from premenopausal women (N=27) who were scheduled to undergo hysterectomy for symptomatic uterine leiomyomas at the University of Florida affiliated Shands Hospital. Of these patients seven received GnRHa therapy for a period of three months prior to surgery. […] To maintain a standard, leiomyomas used in this study were 2 to 3 cm in diameter. Prior approval was obtained from the University of Florida Institutional Review Board for the experimental protocol of this study.
(§6) Portions of leiomyoma and matched myometrium were collected from premenopausal women (N=27) who were scheduled to undergo hysterectomy for symptomatic uterine leiomyomas at the University of Florida affiliated Shands Hospital. Of these patients, seven received GnRHa therapy for a period of three months prior to surgery. […] To maintain a standard, leiomyomas used in this study were 2 to 3 cm in diameter. Prior approval was obtained from the University of Florida Institutional Review Board for the experimental protocol of this study.
(§7) Realtime PCR. Briefly, total RNA was isolated from leiomyoma and matched myometrium using Trizol Reagent (INVITROGEN, Carlsbad, Calif.) and complimentary DNA was generated from 2 μg of total RNA using Taqman reverse transcription reagent. The newly synthesized cDNA was used for PCR performed in 96-well optical reaction plates with cDNA equivalent to 100 ng RNA in a volume of 50 μl reaction containing 1× Taqman Universal Master Mix, optimized concentrations of FAM-labeled probe and specific forward and reverse primer for FMOD selected from Assay on Demand (APPLIED BIOSYSTEMS). Controls included RNA subjected to RT-PCR without reverse transcriptase and PCR with water replacing cDNA.

Assay [4] deals with leiomyoma. Nature of the assay: Realtime PCR mRNA expression in leiomyoma, GnRHa therapy vs untreated. Type of assay: in vivo, human.
From the text: as §3, §4, §5, §6, §7

The mark [5] stands for this setting: GnRHa therapy three months (N=7) vs untreated.
The mark [6] stands for this setting: GnRHa therapy three months vs untreated.

As to `CCNC(=O)[C@@H]1CCCN1C(=O)[C@H](CCCNC(=N)N)NC(=O)[C@H](CC(C)C)NC(=O)[C@@H](CC(C)C)NC(=O)[C@H](Cc1ccc(O)cc1)NC(=O)[C@H](CO)NC(=O)[C@H](Cc1c[nH]c2ccccc12)NC(=O)[C@H](Cc1c[nH]cn1)NC(=O)[C@@H]1CCC(=O)N1` [GnRHa, leuprolide acetate], the “FMOD immunoreactive intensity in leiomyoma” value in the assay on leiomyoma [1] was “reduction”. In the assay with myometrium [2], the “FMOD immunoreactive intensity in myometrium” value was “reduction”. In addition, in the assay on myometrium [3] (setting [5]), the “FMOD mRNA expression in myometrium” value was “significantly reduced”. In the assay on myometrium [3] (setting [6]), the “CCN3 mRNA expression in myometrium” value is listed as “significant reduction”, the “CCN4 mRNA expression in myometrium” value is listed as “significant reduction” and the “S100A4 mRNA expression in myometrium” value was “significant reduction”. For the same molecule, in the assay on myometrium [3] (GnRHa therapy vs untreated), the “CITED2 expression in myometrium” value is on record as “increased”, the “GPRK5 expression in myometrium” value is recorded as “inhibits”, the “IL-11 expression in myometrium” value is given as “suppressed” and the “Nur77 expression in myometrium” value is given as “significant elevation”. Besides, the “FMOD mRNA expression in leiomyoma” value in the assay with leiomyoma [4] (setting [5]) was “significantly reduced”. Also, in the assay on leiomyoma [4] (setting [6]), the “CCN2 mRNA expression in leiomyoma” value is given as “alters”, the “CCN3 mRNA expression in leiomyoma” value was “without affecting”, the “CCN4 mRNA expression in leiomyoma” value is reported as “without affecting” and the “fibulin-1C mRNA expression in leiomyoma” value is given as “without affecting”. Besides, in the assay with leiomyoma [4] (GnRHa therapy vs untreated), the “CITED2 expression in leiomyoma” value is given as “increased”, the “GPRK5 expression in leiomyoma” value is “inhibits”, the “IL-11 expression in leiomyoma” value is “suppressed” and the “Nur77 expression in leiomyoma” value is recorded as “significant elevation”.
